Reference: ChEMBL document CHEMBL3044741, “Synthesis of novel biologically active methylene derivatives of sydnones” (Med Chem Res, 2013)
Converted amounts (≈) assume the structure as drawn.

Columns and labels:
Candida albicans [1] = assay: Antifungal activity against Candida albicans MTCC 227; assay type: functional
Aspergillus clavatus [2] = assay: Antifungal activity against Aspergillus clavatus MTCC 1323 at 250 ug/ml after 74 hrs by Kirby-Bauer method; assay type: functional; conditions: MTCC 1323, 74 h, read-out: IZ
Human alphaherpesvirus 3 [3] = assay: Antiviral activity against thymidine kinase-deficient Varicella-zoster virus infected in HEL cells assessed as reduction in plaque formation; assay type: functional, organism-based; conditions: Human alphaherpesvirus 3, HEL
Cytomegalovirus [4] = assay: Antiviral activity against Cytomegalovirus AD-169 infected in HEL cells assessed as reduction in plaque formation; assay type: functional, organism-based; conditions: Human betaherpesvirus 5, AD-169, HEL
[5] = Selectivity index, ratio of CC50 for human MT4 cells to IC50 for HIV2 ROD; assay type: functional
[6] = test system: Human immunodeficiency virus 2; assay: Antiviral activity against HIV2 ROD infected in MT4 cells assessed as inhibition of virus-induced cytopathogenicity by MTT assay; assay type: functional, organism-based; conditions: Human immunodeficiency virus 2, ISOLATE ROD
Staphylococcus aureus [7] = assay: Antibacterial activity against Staphylococcus aureus MTCC 96 at 250 ug/ml after 24 hrs by Kirby-Bauer method; assay type: functional; conditions: MTCC 96, 24 h, read-out: IZ
Streptococcus pyogenes [8] = assay: Antibacterial activity against Streptococcus pyogenes MTCC 442 at 250 ug/ml after 24 hrs by Kirby-Bauer method; assay type: functional; conditions: MTCC 442, 24 h, read-out: IZ
Candida albicans [9] = assay: Antifungal activity against Candida albicans MTCC 227 at 250 ug/ml after 74 hrs by Kirby-Bauer method; assay type: functional; conditions: MTCC 227, 74 h, read-out: IZ
Escherichia coli [10] = assay: Antibacterial activity against Escherichia coli MTCC 443 after 24 hrs by broth dilution method; assay type: functional; conditions: MTCC 443, 24 h
Staphylococcus aureus [11] = assay: Antibacterial activity against Staphylococcus aureus MTCC 96 after 24 hrs by broth dilution method; assay type: functional; conditions: MTCC 96, 24 h
Pseudomonas aeruginosa [12] = assay: Antibacterial activity against Pseudomonas aeruginosa MTCC 424 at 250 ug/ml after 24 hrs by Kirby-Bauer method; assay type: functional; conditions: MTCC 424, 24 h, read-out: IZ
Streptococcus pyogenes [13] = assay: Antibacterial activity against Streptococcus pyogenes MTCC 442 after 24 hrs by broth dilution method; assay type: functional; conditions: MTCC 442, 24 h
Aspergillus niger [14] = assay: Antifungal activity against Aspergillus niger MTCC 282 at 250 ug/ml after 74 hrs by Kirby-Bauer method; assay type: functional; conditions: MTCC 282, 74 h, read-out: IZ
Human alphaherpesvirus 3 [15] = assay: Antiviral activity against Varicella-zoster virus Oka expressing thymidine kinase infected in HEL cells assessed as reduction in plaque formation; assay type: functional, organism-based; conditions: Human alphaherpesvirus 3, strain Oka vaccine
Escherichia coli [16] = assay: Antibacterial activity against Escherichia coli MTCC 443 at 250 ug/ml after 24 hrs by Kirby-Bauer method; assay type: functional; conditions: MTCC 443, 24 h, read-out: IZ
[17] = Cytotoxicity against human MT4 cells by MTT assay; assay type: cell-based
[18] = test system: Human immunodeficiency virus 1; assay: Antiviral activity against HIV1 3B infected in MT4 cells assessed as inhibition of virus-induced cytopathogenicity by MTT assay; assay type: functional, organism-based; conditions: Human immunodeficiency virus 1, 3B
[19] = Cytotoxicity against human HEL cells; assay type: cell-based
Pseudomonas aeruginosa [20] = assay: Antibacterial activity against Pseudomonas aeruginosa MTCC 424 after 24 hrs by broth dilution method; assay type: functional; conditions: MTCC 424, 24 h
Cytomegalovirus [21] = assay: Antiviral activity against Cytomegalovirus Davis in HEL cells assessed as reduction in plaque formation; assay type: functional, organism-based; conditions: Human betaherpesvirus 5, Davis
[22] = Selectivity index, ratio of CC50 for human MT4 cells to IC50 for HIV1 3B; assay type: functional
[23] = Cytotoxicity against human HEL cells assessed as alteration in cell morphology; assay type: cell-based
Aspergillus clavatus [24] = assay: Antifungal activity against Aspergillus clavatus MTCC 1323; assay type: functional
Aspergillus niger [25] = assay: Antifungal activity against Aspergillus niger MTCC 282; assay type: functional

CC(=O)N1CCN(Cc2c([O-])on[n+]2-c2ccc(C)cc2)CC1
MIC (Candida albicans [1]): 200 µg/mL (≈ 632 µM)
zone of inhibition at 250 µg/mL (Aspergillus clavatus [2]): 24 mm
EC50 (Human alphaherpesvirus 3 [3]): > 20 µg/mL
EC50 (Cytomegalovirus [4]): > 20 µg/mL
Ratio CC50/IC50 [5]: <1
IC50 [6]: > 17.3 µg/mL
zone of inhibition at 250 µg/mL (Staphylococcus aureus [7]): 17 mm
zone of inhibition at 250 µg/mL (Streptococcus pyogenes [8]): 21 mm
zone of inhibition at 250 µg/mL (Candida albicans [9]): 22 mm
MIC (Escherichia coli [10]): 250 µg/mL (≈ 790 µM)
MIC (Staphylococcus aureus [11]): 500 µg/mL (≈ 1580 µM)
zone of inhibition at 250 µg/mL (Pseudomonas aeruginosa [12]): 17 mm
MIC (Streptococcus pyogenes [13]): 100 µg/mL (≈ 316 µM)
zone of inhibition at 250 µg/mL (Aspergillus niger [14]): 26 mm
EC50 (Human alphaherpesvirus 3 [15]): > 20 µg/mL
zone of inhibition at 250 µg/mL (Escherichia coli [16]): 19 mm
CC50 [17]: 17.3 µg/mL (≈ 54.6 µM)
IC50 [18]: > 17.3 µg/mL
CC50 [19]: 24.9 µg/mL (≈ 78.7 µM)
MIC (Pseudomonas aeruginosa [20]): 500 µg/mL (≈ 1580 µM)
EC50 (Cytomegalovirus [21]): > 20 µg/mL
Ratio CC50/IC50 [22]: <1
MCC [23]: 100 µg/mL
MIC (Aspergillus clavatus [24]): 200 µg/mL (≈ 632 µM)
MIC (Aspergillus niger [25]): 200 µg/mL (≈ 632 µM)

[O-]c1on[n+](-c2ccc(Cc3ccc(-[n+]4noc([O-])c4CN4CCN(c5cccc(Cl)c5)CC4)cc3)cc2)c1CN1CCN(c2cccc(Cl)c2)CC1
MIC (Candida albicans [1]): 1000 µg/mL (≈ 1330 µM)
zone of inhibition at 250 µg/mL (Aspergillus clavatus [2]): 22 mm
EC50 (Human alphaherpesvirus 3 [3]): > 4 µg/mL
EC50 (Cytomegalovirus [4]): > 4 µg/mL
Ratio CC50/IC50 [5]: <1
IC50 [6]: > 13.2 µg/mL
zone of inhibition at 250 µg/mL (Staphylococcus aureus [7]): 19 mm
zone of inhibition at 250 µg/mL (Streptococcus pyogenes [8]): 19 mm
zone of inhibition at 250 µg/mL (Candida albicans [9]): 21 mm
MIC (Escherichia coli [10]): 250 µg/mL (≈ 332 µM)
MIC (Staphylococcus aureus [11]): 250 µg/mL (≈ 332 µM)
zone of inhibition at 250 µg/mL (Pseudomonas aeruginosa [12]): 17 mm
MIC (Streptococcus pyogenes [13]): 200 µg/mL (≈ 265 µM)
zone of inhibition at 250 µg/mL (Aspergillus niger [14]): 20 mm
EC50 (Human alphaherpesvirus 3 [15]): > 4 µg/mL
zone of inhibition at 250 µg/mL (Escherichia coli [16]): 18 mm
CC50 [17]: 13.2 µg/mL (≈ 17.5 µM)
IC50 [18]: > 13.2 µg/mL
CC50 [19]: > 100 µg/mL
MIC (Pseudomonas aeruginosa [20]): 500 µg/mL (≈ 663 µM)
EC50 (Cytomegalovirus [21]): 20 µg/mL (≈ 26.5 µM)
Ratio CC50/IC50 [22]: <1
MCC [23]: ≥ 20 µg/mL
MIC (Aspergillus clavatus [24]): 1000 µg/mL (≈ 1330 µM)
MIC (Aspergillus niger [25]): 1000 µg/mL (≈ 1330 µM)
